Consider two compounds from patent US20250230166A1, “OXADIAZOLE HDAC6 INHIBITORS AND USES THEREOF” (Eikonizo Therapeutics, Inc., priority 2022, published 2025).

This assay addresses T1, Full length Human HDAC6 (Homo sapiens, UniProt Q9UBN7).
T1 construct: Full length Human HDAC6; FLAG (C); host or cells: baculovirus expression system
T1 sequence (Q9UBN7 1-1215): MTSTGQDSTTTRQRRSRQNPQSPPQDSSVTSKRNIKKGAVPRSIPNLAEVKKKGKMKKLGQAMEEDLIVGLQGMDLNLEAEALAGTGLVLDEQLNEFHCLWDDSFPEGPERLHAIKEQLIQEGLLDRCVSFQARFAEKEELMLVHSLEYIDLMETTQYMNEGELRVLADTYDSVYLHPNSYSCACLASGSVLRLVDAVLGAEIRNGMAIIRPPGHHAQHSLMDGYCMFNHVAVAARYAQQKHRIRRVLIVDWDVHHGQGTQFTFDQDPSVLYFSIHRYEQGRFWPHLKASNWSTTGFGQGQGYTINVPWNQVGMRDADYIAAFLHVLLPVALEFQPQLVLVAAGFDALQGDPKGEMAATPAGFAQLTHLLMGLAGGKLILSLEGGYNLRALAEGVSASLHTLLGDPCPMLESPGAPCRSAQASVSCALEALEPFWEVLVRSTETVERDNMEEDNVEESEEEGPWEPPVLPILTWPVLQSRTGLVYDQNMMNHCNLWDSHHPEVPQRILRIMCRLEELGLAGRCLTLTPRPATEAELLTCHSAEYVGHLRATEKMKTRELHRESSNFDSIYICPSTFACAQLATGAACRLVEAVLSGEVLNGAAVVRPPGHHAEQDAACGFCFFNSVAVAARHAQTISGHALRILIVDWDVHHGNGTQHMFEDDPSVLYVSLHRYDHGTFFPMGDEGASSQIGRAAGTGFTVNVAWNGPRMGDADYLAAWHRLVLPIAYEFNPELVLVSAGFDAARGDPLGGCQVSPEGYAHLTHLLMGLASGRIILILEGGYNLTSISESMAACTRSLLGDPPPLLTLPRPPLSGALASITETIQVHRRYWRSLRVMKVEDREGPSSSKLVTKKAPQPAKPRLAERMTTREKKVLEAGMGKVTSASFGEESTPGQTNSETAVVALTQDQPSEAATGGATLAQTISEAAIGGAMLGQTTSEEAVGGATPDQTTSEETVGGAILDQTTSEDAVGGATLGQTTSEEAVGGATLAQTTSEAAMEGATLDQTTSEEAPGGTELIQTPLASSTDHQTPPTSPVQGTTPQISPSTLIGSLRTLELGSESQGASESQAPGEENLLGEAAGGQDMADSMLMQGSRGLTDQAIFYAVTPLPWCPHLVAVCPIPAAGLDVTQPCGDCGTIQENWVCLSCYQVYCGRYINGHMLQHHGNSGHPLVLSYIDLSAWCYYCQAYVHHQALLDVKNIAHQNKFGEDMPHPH
The assay can be described thus: In vitro HDAC6 enzymatic activity (Caliper endpoint assay or Nanosyn fluorogenic format). Format: biochemical. To be noted: 30 min pre-incubation with enzyme.

pIC50: −log10 of the molar value.

What is called pIC50 is the IC50 on a negative log10 scale, so that one unit is a factor of ten.

In the case of `FC(F)c1nnc(-c2ccc(COc3cccc4ncccc34)nc2)o1` [Compound 63, 2-(difluoromethyl)-5-[6-(5-quinolyloxymethyl)-3-pyridyl]-1,3,4-oxadiazole], the pIC50 is 7.00 to 9.00.

Compound `FC(F)c1nnc(-c2ccc(COc3ccc4cccnc4c3)nc2)o1` [Compound 34, 2-(difluoromethyl)-5-[6-(7-quinolyloxymethyl)-3-pyridyl]-1,3,4-oxadiazole] gave a pIC50 of 7.00 to 9.00.
